Experimental data from PMC7915588, “Polyphyllin D Shows Anticancer Effect through a Selective Inhibition of Src Homology Region 2-Containing Protein Tyrosine Phosphatase-2 (SHP2)” (Molecules, 2021).

How the values were obtained:
SHP2 [1] = target: T1, SHP2 (Homo sapiens, UniProt Q06124)
T1 construct: gene PTPN11
T1 sequence (Q06124 1-526): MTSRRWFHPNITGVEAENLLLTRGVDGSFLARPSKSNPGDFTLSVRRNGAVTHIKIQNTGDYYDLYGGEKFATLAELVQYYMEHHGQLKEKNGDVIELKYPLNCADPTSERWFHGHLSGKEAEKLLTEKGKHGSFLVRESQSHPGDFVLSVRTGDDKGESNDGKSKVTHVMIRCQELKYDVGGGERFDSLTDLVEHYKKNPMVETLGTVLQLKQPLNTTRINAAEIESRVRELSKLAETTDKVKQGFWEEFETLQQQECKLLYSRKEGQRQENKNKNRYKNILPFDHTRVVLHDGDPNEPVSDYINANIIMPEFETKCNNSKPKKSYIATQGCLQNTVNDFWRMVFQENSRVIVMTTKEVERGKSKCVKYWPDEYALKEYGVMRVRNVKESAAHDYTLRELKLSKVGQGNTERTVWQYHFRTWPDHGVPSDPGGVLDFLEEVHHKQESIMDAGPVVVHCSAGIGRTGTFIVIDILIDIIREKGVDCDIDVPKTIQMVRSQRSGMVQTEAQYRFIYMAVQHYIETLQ

SHP2 [2] = target: T1, SHP2; assay: DiFMUP fluorogenic phosphatase assay at […]; format: biochemical

Row | SMILES | Km (SHP2 [1]) | DiFMUP fluorogenic phosphatase assay at 20 μM (SHP2 [2])
1 | Cc1cc(=O)oc2c(F)c(OP(=O)(O)O)c(F)cc12 [DiFMUP] | 70 µM | –
2 | CC1(C)CC[C@]2(C(=O)O)CC[C@]3(C)C(=CC[C@@H]4[C@@]5(C)CC[C@H](O)C(C)(C)[C@@H]5CC[C@]43C)[C@@H]2C1 [oleanolic acid] | – | Echinocystic and oleanolic acids selectively inhibited SHP1 and SHP2 over the other PTPs tested
